Assay results published in patent publication US20200197418A1, “COMPOUNDS FOR THE TREATMENT OF DISEASES CAUSED BY OXALATE ACCUMULATION” (UNIVERSIDAD DE GRANADA, priority 2017, published 2020).
Read-outs that look alike come from different tables or passages of the source. Marks after values point to notes of the source that are not given here.

Key:
[1] = system: Agxt1-KO mouse hepatocyte cultures; assay: Oxalate reduction assay in primary hepatocyte cultures from hyperoxaluric mice, glycolate-loaded; format: cell-based; conditions: for Relative oxalate at 10 μM: compound at 10 μM, Agxt1-/- mouse hepatocytes with 5 mM glycolate, mean ± standard deviation; for EC50: Agxt1-KO mouse hepatocytes, 5 mM glycolate
Protocol: Isolation and culture of hepatocytes: The isolation of hepatocytes from AGT enzyme-deficient mice was carried out as described in the literature. A total of 3.0×10^5 cells/well were then cultured in 6-well plates in William's E medium supplemented with foetal bovine serum (5%), I-glutamine (2 mM), penicillin (100 U/ml), streptomycin (100 μg/ml), insulin (2.2 mIU/ml) and hydrocortisone (0.3 μg/ml). After 5 h, the medium was switched to serum-free complete William's E medium (Biochrom, Cambridge, UK), and the cells were treated with increasing concentrations of each of the drugs in the presence of 5 mM glycolate. Samples of the culture medium were collected at 24, 48 and 72 h after treatment, to quantify oxalate.
Determination of oxalate: The determination of oxalate excreted into the medium was carried out by assaying in the presence of oxalate oxidase using a commercial kit (Trinity Biotech, Co Wicklow, Ireland), following the manufacturer's indications. GraphPad Prism 5 software was used for the graphical representation of the data as the mean±SD.
The efficacy of reducing oxalate production was measured in primary hepatocyte cultures obtained from hyperoxaluric mice (Agxt1^−/−). Cultures of less than 5 days were used to prevent possible interferences due to cell differentiation. For the short-term increase in the production of oxalate in cells and for obtaining detectable levels in standard enzymatic assays, glycolate was added to the culture medium at a concentration of 5 mM. Firstly, the viability of the hepatocytes treated with increasing concentrations of each drug up to 200 μM in the presence of glycolate was tested in comparative assays with control hepatocytes not treated with a drug and at different times.
Oxalate reduction assays were then carried out. Samples of the culture medium were taken every 24 hours after treatment with each of the compounds under evaluation. In each of these samples was measured the concentration of oxalate excreted into the medium by Agxt1^−/− hepatocytes. The determination of oxalate in the samples was carried out using a colorimetric enzymatic assay based on two consecutive reactions catalysed by the enzymes oxalate oxidase and peroxidase, respectively.

[2] = system: mice with PH-1 (Agxt1-KO); conditions: cited from earlier work
[3] = Hepatocyte, 24 h after treatment, read-out: EC50 (24 h), reduced production of oxalate
[4] = Hepatocyte, 48 h after treatment, read-out: EC50 (48 h), reduced production of oxalate
[5] = Hepatocyte, 72 h after treatment, read-out: EC50 (72 h), reduced production of oxalate

Compound	Relative oxalate at 10 μM [1]	further results
O=C(O)c1cc(-c2ccco2)ccc1O [drawing 13]	−0.25 ± 0.2	
CC(=O)c1ccc(-c2ccc(C(=O)O)c(O)c2)s1	0.89 ± 0.14	
O=C(O)c1cc(-c2ccccc2COc2cccc(C(F)(F)F)c2)ccc1O	0.68 ± 0.21	
O=Cc1ccc(-c2ccc(O)c(C(=O)O)c2)o1 [Compound 78, 5-(5-formyl-2-furyl)-2-hydroxybenzoic acid]		EC50 [1, 3]: 3.45 µM; EC50 [1, 4]: 8.36 µM; EC50 [1, 5]: 11.2 µM
COc1cccc(-c2ccc(C(=O)O)c(O)c2)c1	0.83 ± 0.03	
O=C(O)c1ccc(-c2ccccc2COc2cc(F)cc(F)c2)cc1O	0.72 ± 0.16	
O=C(O)c1ccc(-c2ccc(O)cc2)cc1O	0.82 ± 0.01	
O=C(O)c1cc(-c2ccoc2)ccc1O	0.89 ± 0.16	
O=C(O)c1cc(-c2ccc(F)cc2F)ccc1O	0.88 ± 0.08	
O=C(O)c1cc(-c2cccs2)ccc1O	0.82 ± 0.01	
O=Cc1ccc(-c2ccc(O)c(C(=O)O)c2)o1 [drawing 17]	−0.06 ± 0.29^a	
O=C(O)c1ccc(-c2ccco2)cc1O [drawing 12]	0.87 ± 0.15	
O=C(O)c1cc(-c2ccc(OCc3ccccc3)cc2)ccc1O	0.8 ± 0.16	
O=C(O)c1ccc(-c2cccs2)cc1O	0.74 ± 0.16	
C#CCCCC(=O)Nc1ccc(C(=O)c2ccc(NCc3ccc(-c4ccc(O)c(C(=O)O)c4)o3)cc2)cc1.N	0.144 ± 0.322	
O=C(O)c1ccc(-c2ccco2)cc1O [Compound 73, 4-(2-furyl)-2-hydroxybenzoic acid]		EC50 [1, 3]: 9.35 µM; EC50 [1, 4]: 92.2 µM
COc1ccc(COc2ccc(-c3ccc(C(=O)O)c(O)c3)cc2)cc1	0.90 ± 0.16	
O=C(O)c1cc([N+](=O)[O-])c(-c2ccco2)cc1O	0.86 ± 0.04	
O=C(O)c1nnsc1Sc1ccc(Cl)cc1 [CCPST, reference compound]		effectiveness in reducing oxalate levels [2]: reducing oxalate levels; EC50 ([1]; 24 h after treatment, read-out: EC50 (24 h), reduced production of oxalate): 25.3 µM; EC50 ([1]; 48 h after treatment, read-out: EC50 (48 h), reduced production of oxalate): 32.9 µM; EC50 ([1]; 72 h after treatment, read-out: EC50 (72 h), reduced production of oxalate): 33.9 µM
O=C(O)c1ccc(-c2ccncc2)cc1O	0.88 ± 0.03	
N.O=C(O)c1cc(-c2ccc(CNc3ccc([N+](=O)[O-])cc3)o2)ccc1O	−0.236 ± 0.115	
COc1cc(-c2ccc(C=O)o2)ccc1C(=O)O	0.82 ± 0.04	
O=Cc1ccc(-c2ccc(C(=O)O)c(O)c2)o1	0.88 ± 0.18	
O=C(O)c1cc(-c2ccc(CO)o2)ccc1O	0.88 ± 0.19	
N.O=C(O)c1cc(-c2ccc(CNc3ccc(Br)cc3)o2)ccc1O	0.373 ± 0.063	
O=C(O)c1ccc(-c2ccc(CO)o2)cc1O	0.88 ± 0.01	
Oc1ccc(-c2ccoc2)cc1O	1.02 ± 0.3	
O=C(O)c1cc(-c2ccco2)ccc1O [Compound 74, 5-(2-furyl)-2-hydroxybenzoic acid]		EC50 [1, 3]: 3.59 µM; EC50 [1, 4]: 7.88 µM; EC50 [1, 5]: 9.2 µM
O=C(O)c1ccc(-c2ccccc2COc2cccc(C(F)(F)F)c2)cc1O	0.62 ± 0.29	
